According to patent US12350265B2, “Pharmaceutical composition for treating acute myeloid leukemia, containing FLT3 inhibitor and chemotherapeutic agents” (Hanmi Pharm. Co., Ltd., priority 2019, dated 2025):

Test system: MV-4-11 cell line
Assay: MV-4-11 cell line xenografted mouse model, tumor volume / tumor growth inhibition
Format: in vivo
Conditions: nude mice xenografted with MV-4-11; Compound A 3 mg/kg/day orally once a day, days 1 to 21
Method: In a mouse model xenografted with the MV-4-11 cell line, comparison or combination efficacy tests were conducted of the FLT3 inhibitor 5-Chloro-N-(3-cyclopropyl-5-(((3R,5S)-3,5-dimethylpiperazine-1-yl)methyl)phenyl)-4-(6-methyl-1H-indole-3-yl)pyrimidin-2-amine (hereinafter compound A); 4-amino-1-[(2R,3S,4S,5R)-3,4-dihydroxy-5-(hydroxymethyl)oxolane-2-yl]pyrimidin-2-one (hereafter cytarabine); and ((8S,10S)-8-acetyl-10-[(2S,4S,5S,6S)-4-amino-5-hydroxy-6-methyl-oxane-2-yl]oxy-6,8,11-trihydroxy-1-methoxy-9,10-dihydro-7H-tetracene-5,12-dione (hereafter daunorubicin).
The MV-4-11 cell line was purchased from the American Type Culture Collection (ATCC). To construct a xenografted mouse model using this MV-4-11 cell line, 5-week-old female CAnN·Cg-Foxn1nu/Crljbgi mice (hereinafter, Nude mice) were purchased from Charles River Laboratories Japan, Inc.
The MV-4-11 cell line was inoculated subcutaneously in the flank with 5×10^6 cells/[…]/mouse and allowed to grow. Mice having a tumor volume of 100 to 300 mm^3 (length×width^2×0.5) were selected 1 day before administration, the average tumor volume in each group was divided into 4 groups (5 animals/group) so that the average tumor volume was almost the same, and each dose was administered for a total period of 21 days. […]

In the case of `Cc1ccc2c(-c3nc(Nc4cc(CN5C[C@@H](C)N[C@@H](C)C5)cc(C5CC5)c4)ncc3Cl)c[nH]c2c1` [compound A, 5-Chloro-N-(3-cyclopropyl-5-(((3R,5S)-3,5-dimethylpiperazine-1-yl)methyl)phenyl)-4-(6-methyl-1H-indole-3-yl)pyrimidin-2-amine], the “Tumor growth inhibition (TGI)” value is reported as 34.7%.
